# Data reported in ChEMBL document CHEMBL5055626 (J Med Chem, 2021).
# Calls of active or inactive are those of the source. No cut-off for these calls is given here. Where a SMILES comes first, the peptide text is derived from it. Bridges are numbered along the chain shown (N, C = ends). [ ]: non-standard residue; d: D form. sY = N[C@@H](Cc1ccc(OS(=O)(=O)O)cc1)C(=O)O
# Key:
# [1] = target: Neuronal acetylcholine receptor subunit alpha-7 (Rattus norvegicus, UniProt Q05941); assay: Antagonist activity at rat alpha7 nAChR expressed in xenopus oocytes assessed as inhibition of Ach- induced response at -70 mV holding potential preincubated for 5 mins followed by Ach stimulation by voltage-clamp based electrophysiological method; assay type: cell-based, Oocyte
# Chain of Neuronal acetylcholine receptor subunit alpha-7 (Rattus norvegicus, UniProt Q05941) (Q05941 whole entry): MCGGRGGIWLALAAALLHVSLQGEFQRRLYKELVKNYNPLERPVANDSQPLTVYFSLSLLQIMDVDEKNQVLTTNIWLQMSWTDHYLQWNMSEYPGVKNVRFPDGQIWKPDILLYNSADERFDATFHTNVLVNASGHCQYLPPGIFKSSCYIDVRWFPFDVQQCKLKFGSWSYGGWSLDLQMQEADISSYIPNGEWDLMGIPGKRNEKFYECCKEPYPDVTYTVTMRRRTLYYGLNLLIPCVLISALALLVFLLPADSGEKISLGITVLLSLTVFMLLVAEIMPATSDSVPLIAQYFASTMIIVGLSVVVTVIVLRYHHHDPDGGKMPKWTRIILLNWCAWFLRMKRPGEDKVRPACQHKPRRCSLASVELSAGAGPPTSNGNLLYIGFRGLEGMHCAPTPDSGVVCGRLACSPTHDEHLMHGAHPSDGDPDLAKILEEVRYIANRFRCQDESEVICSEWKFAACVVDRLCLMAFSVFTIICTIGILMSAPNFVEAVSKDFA
# [2] = target: Nicotinic acetylcholine receptor alpha6/alpha3/beta4 (Homo sapiens, UniProt P30926+P32297+Q15825); assay: Antagonist activity at rat alpha6/alpha3beta4 nAChR expressed in xenopus oocytes assessed as inhibition of Ach- induced response at -70 mV holding potential preincubated for 5 mins followed by Ach stimulation by voltage-clamp based electrophysiological method; assay type: cell-based, Oocyte
# [3] = target: Neuronal acetylcholine receptor; alpha3/beta2 (Rattus norvegicus, UniProt P04757+P12390); assay: Antagonist activity at rat alpha3beta2 nAChR expressed in xenopus oocytes assessed as inhibition of Ach- induced response at -70 mV holding potential preincubated for 5 mins followed by Ach stimulation by voltage-clamp based electrophysiological method; assay type: cell-based, Oocyte
# Chain of Neuronal acetylcholine receptor; alpha3/beta2 (P04757 whole entry): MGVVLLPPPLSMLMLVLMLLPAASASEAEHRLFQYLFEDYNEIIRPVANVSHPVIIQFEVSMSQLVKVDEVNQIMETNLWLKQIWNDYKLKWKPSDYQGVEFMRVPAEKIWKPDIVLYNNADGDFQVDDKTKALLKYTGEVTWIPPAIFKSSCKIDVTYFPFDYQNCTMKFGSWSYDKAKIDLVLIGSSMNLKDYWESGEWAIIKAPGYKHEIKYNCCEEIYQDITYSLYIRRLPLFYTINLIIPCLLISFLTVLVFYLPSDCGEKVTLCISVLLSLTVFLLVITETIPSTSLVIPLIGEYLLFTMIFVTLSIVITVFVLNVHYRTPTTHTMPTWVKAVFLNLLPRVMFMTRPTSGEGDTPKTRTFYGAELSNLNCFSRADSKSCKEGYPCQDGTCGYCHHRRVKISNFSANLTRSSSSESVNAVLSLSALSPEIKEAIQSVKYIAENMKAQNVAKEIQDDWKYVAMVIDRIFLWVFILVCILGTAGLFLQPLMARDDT
# Chain of Neuronal acetylcholine receptor; alpha3/beta2 (P12390 whole entry): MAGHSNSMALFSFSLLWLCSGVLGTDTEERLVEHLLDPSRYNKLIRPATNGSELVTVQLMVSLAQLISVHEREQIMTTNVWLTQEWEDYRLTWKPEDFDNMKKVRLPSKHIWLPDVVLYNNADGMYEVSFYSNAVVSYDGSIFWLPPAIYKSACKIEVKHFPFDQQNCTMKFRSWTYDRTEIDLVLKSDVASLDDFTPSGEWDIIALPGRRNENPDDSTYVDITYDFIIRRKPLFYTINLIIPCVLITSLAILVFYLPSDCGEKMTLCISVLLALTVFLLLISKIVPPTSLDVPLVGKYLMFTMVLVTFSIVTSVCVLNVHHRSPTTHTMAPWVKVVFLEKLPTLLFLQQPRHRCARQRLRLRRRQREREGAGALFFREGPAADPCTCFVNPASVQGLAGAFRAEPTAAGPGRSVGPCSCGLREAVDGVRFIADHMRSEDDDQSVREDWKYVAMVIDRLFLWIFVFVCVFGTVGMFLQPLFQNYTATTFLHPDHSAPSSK
# [4] = Antagonist activity at rat alpha6/ alpha3beta2beta3 nAChR expressed in xenopus oocytes assessed as inhibition of Ach- induced response at -70 mV holding potential preincubated for 5 mins followed by Ach stimulation by voltage-clamp based electrophysiological method; assay type: cell-based; details: Oocyte
# [5] = target: Neuronal acetylcholine receptor; alpha2/beta2 (Rattus norvegicus, UniProt P12389+P12390); assay: Antagonist activity at rat alpha2beta2 nAChR expressed in xenopus oocytes assessed as inhibition of Ach- induced response at -70 mV holding potential preincubated for 5 mins followed by Ach stimulation by voltage-clamp based electrophysiological method; assay type: cell-based, Oocyte
# Chain of Neuronal acetylcholine receptor; alpha2/beta2 (P12389 whole entry): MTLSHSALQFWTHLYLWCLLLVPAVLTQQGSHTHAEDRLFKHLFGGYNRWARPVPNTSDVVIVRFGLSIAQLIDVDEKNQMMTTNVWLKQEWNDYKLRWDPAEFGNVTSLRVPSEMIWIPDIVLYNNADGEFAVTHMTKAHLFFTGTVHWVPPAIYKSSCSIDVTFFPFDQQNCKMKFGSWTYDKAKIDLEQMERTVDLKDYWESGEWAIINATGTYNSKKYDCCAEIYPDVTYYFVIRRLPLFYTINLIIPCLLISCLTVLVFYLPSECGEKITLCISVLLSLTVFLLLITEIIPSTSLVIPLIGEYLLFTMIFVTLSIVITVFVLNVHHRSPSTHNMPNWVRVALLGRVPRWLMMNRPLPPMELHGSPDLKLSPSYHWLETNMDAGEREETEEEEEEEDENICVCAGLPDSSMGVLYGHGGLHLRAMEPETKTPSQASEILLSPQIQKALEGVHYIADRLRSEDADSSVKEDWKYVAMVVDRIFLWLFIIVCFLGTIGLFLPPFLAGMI
# Chain of Neuronal acetylcholine receptor; alpha2/beta2 (P12390 whole entry): as the sequence (P12390 whole entry) above
# [6] = target: Neuronal acetylcholine receptor; alpha2/beta4 (Rattus norvegicus, UniProt P12389+P12392); assay: Antagonist activity at rat alpha2beta4 nAChR expressed in xenopus oocytes assessed as inhibition of Ach- induced response at -70 mV holding potential preincubated for 5 mins followed by Ach stimulation by voltage-clamp based electrophysiological method; assay type: cell-based, Oocyte
# Chain of Neuronal acetylcholine receptor; alpha2/beta4 (P12389 whole entry): as the sequence (P12389 whole entry) above
# Chain of Neuronal acetylcholine receptor; alpha2/beta4 (P12392 whole entry): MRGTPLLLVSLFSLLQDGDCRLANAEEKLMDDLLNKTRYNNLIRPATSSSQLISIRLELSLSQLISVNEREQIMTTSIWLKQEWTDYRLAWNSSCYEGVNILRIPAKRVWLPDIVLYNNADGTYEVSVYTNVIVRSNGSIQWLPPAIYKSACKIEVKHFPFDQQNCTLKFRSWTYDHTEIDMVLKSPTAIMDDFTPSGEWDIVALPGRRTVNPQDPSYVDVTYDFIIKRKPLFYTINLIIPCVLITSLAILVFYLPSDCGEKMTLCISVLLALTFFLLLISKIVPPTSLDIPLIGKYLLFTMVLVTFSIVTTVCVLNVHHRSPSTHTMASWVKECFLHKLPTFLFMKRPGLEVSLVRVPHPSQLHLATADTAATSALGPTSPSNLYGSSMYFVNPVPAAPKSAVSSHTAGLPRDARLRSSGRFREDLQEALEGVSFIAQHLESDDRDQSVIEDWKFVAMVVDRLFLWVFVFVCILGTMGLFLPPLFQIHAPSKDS
# [7] = target: Neuronal acetylcholine receptor; alpha3/beta4 (Rattus norvegicus, UniProt P04757+P12392); assay: Antagonist activity at rat alpha3beta4 nAChR expressed in xenopus oocytes assessed as inhibition of Ach- induced response at -70 mV holding potential preincubated for 5 mins followed by Ach stimulation by voltage-clamp based electrophysiological method; assay type: cell-based, Oocyte
# [8] = target: Neuronal acetylcholine receptor; alpha4/beta2 (Rattus norvegicus, UniProt P09483+P12390); assay: Antagonist activity at rat alpha4beta2 nAChR expressed in xenopus oocytes assessed as inhibition of Ach- induced response at -70 mV holding potential preincubated for 5 mins followed by Ach stimulation by voltage-clamp based electrophysiological method; assay type: cell-based, Oocyte
# [9] = target: Neuronal acetylcholine receptor; alpha4/beta4 (Rattus norvegicus, UniProt P09483+P12392); assay: Antagonist activity at rat alpha4beta4 nAChR expressed in xenopus oocytes assessed as inhibition of Ach- induced response at -70 mV holding potential preincubated for 5 mins followed by Ach stimulation by voltage-clamp based electrophysiological method; assay type: cell-based, Oocyte
# [10] = target: Nicotinic acetylcholine receptor alpha9/alpha10 (Rattus norvegicus, UniProt P43144+Q9JLB5); assay: Antagonist activity at rat alpha9alpha10 nAChR expressed in xenopus oocytes assessed as inhibition of Ach- induced response at -70 mV holding potential preincubated for 5 mins followed by Ach stimulation by voltage-clamp based electrophysiological method; assay type: cell-based, Oocyte
# Chain of Nicotinic acetylcholine receptor alpha9/alpha10 (P43144 whole entry): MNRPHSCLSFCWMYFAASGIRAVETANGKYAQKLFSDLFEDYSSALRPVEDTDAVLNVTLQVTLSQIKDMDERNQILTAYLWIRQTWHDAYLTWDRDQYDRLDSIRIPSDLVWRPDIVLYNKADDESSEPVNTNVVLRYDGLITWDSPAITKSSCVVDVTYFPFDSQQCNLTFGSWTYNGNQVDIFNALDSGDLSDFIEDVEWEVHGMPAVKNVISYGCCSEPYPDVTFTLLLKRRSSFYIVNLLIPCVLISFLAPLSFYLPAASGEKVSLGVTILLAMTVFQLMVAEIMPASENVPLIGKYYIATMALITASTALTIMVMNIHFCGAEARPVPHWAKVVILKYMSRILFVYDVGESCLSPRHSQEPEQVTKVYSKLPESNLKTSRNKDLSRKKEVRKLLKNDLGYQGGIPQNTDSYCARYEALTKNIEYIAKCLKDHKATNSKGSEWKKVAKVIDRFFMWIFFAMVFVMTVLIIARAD
# Chain of Nicotinic acetylcholine receptor alpha9/alpha10 (Q9JLB5 whole entry): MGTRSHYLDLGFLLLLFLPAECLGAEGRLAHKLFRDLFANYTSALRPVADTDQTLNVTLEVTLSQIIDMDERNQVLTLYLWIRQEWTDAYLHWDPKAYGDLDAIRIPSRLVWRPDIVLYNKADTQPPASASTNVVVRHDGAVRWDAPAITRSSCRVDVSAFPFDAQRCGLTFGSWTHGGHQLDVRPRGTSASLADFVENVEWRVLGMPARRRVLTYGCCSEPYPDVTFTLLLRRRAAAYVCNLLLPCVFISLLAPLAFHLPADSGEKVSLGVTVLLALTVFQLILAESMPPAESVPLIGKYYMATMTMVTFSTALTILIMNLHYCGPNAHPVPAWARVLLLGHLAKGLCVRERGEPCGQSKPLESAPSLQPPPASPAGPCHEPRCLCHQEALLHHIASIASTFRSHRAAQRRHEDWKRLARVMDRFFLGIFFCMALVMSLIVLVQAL
# [11] = target: Nicotinic acetylcholine receptor alpha9/alpha10 (Rattus norvegicus) (UniProt P43144+Q9JLB5); assay: Antagonist activity at rat alpha9alpha10 nAChR expressed in xenopus oocytes assessed as inhibition of Ach- induced response at 10 uM at -70 mV holding potential preincubated for 5 mins followed by Ach stimulation by voltage-clamp based electrophysiological method; assay type: cell-based; details: Oocyte
# [12] = target: Neuronal acetylcholine receptor; alpha2/beta2 (Rattus norvegicus) (UniProt P12389+P12390); assay: Antagonist activity at rat alpha2beta2 nAChR expressed in xenopus oocytes assessed as inhibition of Ach- induced response at 10 uM at -70 mV holding potential preincubated for 5 mins followed by Ach stimulation by voltage-clamp based electrophysiological method; assay type: cell-based; details: Oocyte
# [13] = target: Neuronal acetylcholine receptor; alpha2/beta4 (Rattus norvegicus) (UniProt P12389+P12392); assay: Antagonist activity at rat alpha2beta4 nAChR expressed in xenopus oocytes assessed as inhibition of Ach- induced response at 10 uM at -70 mV holding potential preincubated for 5 mins followed by Ach stimulation by voltage-clamp based electrophysiological method; assay type: cell-based; details: Oocyte
# [14] = target: Neuronal acetylcholine receptor; alpha3/beta4 (Rattus norvegicus) (UniProt P04757+P12392); assay: Antagonist activity at rat alpha3beta4 nAChR expressed in xenopus oocytes assessed as inhibition of Ach- induced response at 10 uM at -70 mV holding potential preincubated for 5 mins followed by Ach stimulation by voltage-clamp based electrophysiological method; assay type: cell-based; details: Oocyte
# [15] = target: Neuronal acetylcholine receptor; alpha4/beta2 (Rattus norvegicus) (UniProt P09483+P12390); assay: Antagonist activity at rat alpha4beta2 nAChR expressed in xenopus oocytes assessed as inhibition of Ach- induced response at 10 uM at -70 mV holding potential preincubated for 5 mins followed by Ach stimulation by voltage-clamp based electrophysiological method; assay type: cell-based; details: Oocyte
# [16] = target: Neuronal acetylcholine receptor; alpha4/beta4 (Rattus norvegicus) (UniProt P09483+P12392); assay: Antagonist activity at rat alpha4beta4 nAChR expressed in xenopus oocytes assessed as inhibition of Ach- induced response at 10 uM at -70 mV holding potential preincubated for 5 mins followed by Ach stimulation by voltage-clamp based electrophysiological method; assay type: cell-based; details: Oocyte
# [17] = Antagonist activity at rat nAChR alpha7 Q141H mutant expressed in xenopus oocytes assessed as inhibition of Ach- induced response at -70 mV holding potential preincubated for 5 mins followed by Ach stimulation by voltage-clamp based electrophysiological method; assay type: cell-based; details: Oocyte
# [18] = Antagonist activity at rat nAChR alpha7 N184S mutant expressed in xenopus oocytes assessed as inhibition of Ach- induced response at -70 mV holding potential preincubated for 5 mins followed by Ach stimulation by voltage-clamp based electrophysiological method; assay type: cell-based; details: Oocyte
# [19] = Antagonist activity at rat nAChR alpha7 K186R mutant expressed in xenopus oocytes assessed as inhibition of Ach- induced response at -70 mV holding potential preincubated for 5 mins followed by Ach stimulation by voltage-clamp based electrophysiological method; assay type: cell-based; details: Oocyte
# [20] = target: Neuronal acetylcholine receptor subunit alpha-7 (Homo sapiens, UniProt P36544); assay type: cell-based, Oocyte
# Chain of Neuronal acetylcholine receptor subunit alpha-7 (Homo sapiens, UniProt P36544) (P36544 whole entry): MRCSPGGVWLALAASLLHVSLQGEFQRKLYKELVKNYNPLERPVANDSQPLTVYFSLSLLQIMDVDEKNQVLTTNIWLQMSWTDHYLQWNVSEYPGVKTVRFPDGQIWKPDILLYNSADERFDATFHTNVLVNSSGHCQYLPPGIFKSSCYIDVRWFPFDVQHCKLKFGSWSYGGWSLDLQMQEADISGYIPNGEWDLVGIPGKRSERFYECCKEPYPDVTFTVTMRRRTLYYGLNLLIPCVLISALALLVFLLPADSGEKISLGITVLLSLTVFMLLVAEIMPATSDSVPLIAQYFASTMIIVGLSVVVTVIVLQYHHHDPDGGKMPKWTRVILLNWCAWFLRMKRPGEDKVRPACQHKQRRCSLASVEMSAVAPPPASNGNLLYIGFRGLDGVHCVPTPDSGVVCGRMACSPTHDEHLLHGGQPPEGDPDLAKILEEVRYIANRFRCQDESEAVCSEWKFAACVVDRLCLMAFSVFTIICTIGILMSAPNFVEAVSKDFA
# [21] = Antagonist activity at human nAChR alpha7 S184N mutant expressed in xenopus oocytes assessed as inhibition of Ach- induced response at -70 mV holding potential preincubated for 5 mins followed by Ach stimulation by voltage-clamp based electrophysiological method; assay type: cell-based; details: Oocyte
# [22] = Antagonist activity at human nAChR alpha7 R186K mutant expressed in xenopus oocytes assessed as inhibition of Ach- induced response at -70 mV holding potential preincubated for 5 mins followed by Ach stimulation by voltage-clamp based electrophysiological method; assay type: cell-based; details: Oocyte
# [23] = Antagonist activity at human nAChR alpha7 S184N/R186K double mutant expressed in xenopus oocytes assessed as inhibition of Ach- induced response at -70 mV holding potential preincubated for 5 mins followed by Ach stimulation by voltage-clamp based electrophysiological method; assay type: cell-based; details: Oocyte
smiles,measurement,setting,value
"C[C@@H]1NC(=O)[C@@H]2CSSC[C@H](NC(=O)[C@@H](N)CCC(N)=O)C(=O)N[C@@H](CSSC[C@@H](C(N)=O)NC(=O)[C@H](Cc3cnc[nH]3)NC(=O)[C@H](CCC(=O)O)NC(=O)[C@H](Cc3cnc[nH]3)NC1=O)C(=O)N[C@@H](CO)C(=O)N[C@@H](CC(N)=O)C(=O)N1CCC[C@H]1C(=O)N1CCC[C@H]1C(=O)N2 (H-QCCSNPPCAHEHC-NH2; disulfide 2-8, 3-13)",IC50,[1],0.47 µM
same,IC50,[2],> 10 µM
same,IC50,[3],1.56 µM
same,IC50,[4],0.55 µM
same,IC50,[5],> 10 µM
same,IC50,[6],> 10 µM
same,IC50,[7],> 10 µM
same,IC50,[8],> 10 µM
same,IC50,[9],> 10 µM
same,IC50,[10],> 10 µM
same,inhibition,[11],inactive
same,inhibition,[12],inactive
same,inhibition,[13],inactive
same,inhibition,[14],inactive
same,inhibition,[15],inactive
same,inhibition,[16],inactive
"CC[C@H](C)[C@@H]1NC(=O)[C@H](Cc2cnc[nH]2)NC(=O)[C@@H]2CCCN2C(=O)[C@H](CC(N)=O)NC(=O)[C@H](CC(N)=O)NC(=O)[C@H](C(C)C)NC(=O)[C@H](CC(N)=O)NC(=O)[C@@H]2CSSC[C@H](NC(=O)CN)C(=O)N[C@@H](CSSC[C@@H](C(=O)O)NC1=O)C(=O)N[C@@H](CO)C(=O)N[C@@H](CC(=O)O)C(=O)N1CCC[C@H]1C(=O)N[C@@H](C)C(=O)N2 (H-GCCSDPACNVNNPHIC-OH; disulfide 2-8, 3-16)",IC50,[1],0.1 µM
same,IC50,[17],0.12 µM
same,IC50,[18],0.13 µM
same,IC50,[19],7.48 µM
same,IC50,[20],13.7 µM
same,IC50,[21],7.14 µM
same,IC50,[22],0.2 µM
same,IC50,[23],0.099 µM
CC[C@H](C)[C@H](N)C(=O)N[C@@H](CCCNC(=N)N)C(=O)N[C@@H](CC(=O)O)C(=O)N[C@@H](CCC(=O)O)C(=O)N[C@H]1CSSC[C@H]2NC(=O)[C@H](C)NC(=O)[C@@H]3CCCN3C(=O)[C@H](CC(N)=O)NC(=O)[C@H](CO)NC(=O)[C@H](CSSC[C@@H](C(=O)N[C@@H](CCCNC(=N)N)C(=O)N[C@@H](CCCNC(=N)N)C(=O)N[C@@H](CCCNC(=N)N)C(=O)O)NC(=O)[C@H](C(C)C)NC(=O)[C@H](Cc3cnc[nH]3)NC(=O)[C@@H]3CCCN3C(=O)[C@H](CC(N)=O)NC(=O)[C@H](CC(N)=O)NC(=O)[C@H](C(C)C)NC(=O)[C@H](CCCNC(=N)N)NC2=O)NC1=O,IC50,[3],0.018 µM
"CC(C)C[C@@H]1NC(=O)[C@H](CC(=O)O)NC(=O)[C@@H]2CCCN2C(=O)[C@H](Cc2cnc[nH]2)NC(=O)[C@H](C)NC(=O)[C@H](CC(N)=O)NC(=O)[C@H](CCCNC(=N)N)NC(=O)[C@@H]2CSSC[C@H](NC(=O)CN)C(=O)N[C@@H](CSSC[C@@H](C(=O)O)NC1=O)C(=O)N[C@@H](CO)C(=O)N[C@@H](CC(=O)O)C(=O)N1CCC[C@H]1C(=O)N1CCC[C@H]1C(=O)N2 (H-GCCSDPPCRNAHPDLC-OH; disulfide 2-8, 3-16)",IC50,[1],0.2 µM
same,IC50,[17],0.28 µM
same,IC50,[18],3.29 µM
same,IC50,[19],> 10 µM
same,IC50,[20],> 10 µM
same,IC50,[21],> 10 µM
same,IC50,[22],1.58 µM
same,IC50,[23],0.28 µM
"CSCC[C@@H]1NC(=O)[C@H](CC(N)=O)NC(=O)[C@@H]2CSSC[C@H](NC(=O)CN)C(=O)N[C@@H](CSSC[C@@H](C(=O)O)NC(=O)[C@H](Cc3ccc(OS(=O)(=O)O)cc3)NC(=O)[C@H](CC(=O)O)NC(=O)[C@@H]3CCCN3C(=O)[C@H](CC(N)=O)NC(=O)[C@H](CC(N)=O)NC1=O)C(=O)N[C@@H](CO)C(=O)N[C@@H](CC(=O)O)C(=O)N1CCC[C@H]1C(=O)N[C@@H](CCCNC(=N)N)C(=O)N2 (H-GCCSDPRCNMNNPD[sY]C-OH; disulfide 2-8, 3-16)",IC50,[1],0.03 µM
C[C@@H]1NC(=O)[C@H](C)NC(=O)[C@@H]2CSSC[C@H](NC(=O)CNC(=O)CN)C(=O)N[C@@H](CSSC[C@@H](C(N)=O)NC(=O)[C@H](Cc3ccc(OS(=O)(=O)O)cc3)NC(=O)[C@H](CC(=O)O)NC(=O)[C@H](CCC(N)=O)NC(=O)[C@H](CC(N)=O)NC(=O)[C@H](CC(N)=O)NC1=O)C(=O)N[C@@H](CO)C(=O)N[C@@H](Cc1cnc[nH]1)C(=O)N1CCC[C@H]1C(=O)N[C@@H](C)C(=O)N2,IC50,[3],0.00028 µM
"C[C@@H]1NC(=O)[C@@H]2CSSC[C@H](NC(=O)CN)C(=O)N[C@@H](CSSC[C@@H](C(=O)N[C@@H](CCCNC(=N)N)C(=O)O)NC(=O)[C@H](Cc3cnc[nH]3)NC(=O)[C@H](CCC(=O)O)NC(=O)[C@H](Cc3cnc[nH]3)NC1=O)C(=O)N[C@@H](CO)C(=O)N[C@@H](CC(N)=O)C(=O)N1CCC[C@H]1C(=O)N1CCC[C@H]1C(=O)N2 (H-GCCSNPPCAHEHCR-OH; disulfide 2-8, 3-13)",IC50,[1],1.1 µM
same,IC50,[2],> 10 µM
same,IC50,[3],> 10 µM
same,IC50,[4],0.63 µM
same,IC50,[5],> 10 µM
same,IC50,[6],> 10 µM
same,IC50,[7],> 10 µM
same,IC50,[8],> 10 µM
same,IC50,[9],> 10 µM
same,IC50,[10],> 10 µM
same,inhibition,[11],inactive
same,inhibition,[12],inactive
same,inhibition,[13],inactive
same,inhibition,[14],inactive
same,inhibition,[15],inactive
same,inhibition,[16],inactive
